“And” between values parts separate entries of the source, which are not always exact repeats. Equal entries are not always repeated. Non-standard residues stand in square brackets, D forms with d. Residues, ends and D or L forms follow the SMILES beside them. *: point of attachment. Dolaproine = CO[C@@H]([C@@H]1CCCN1)[C@@H](C)C(=O)O; Dil = CC[C@H](C)[C@H](NC)[C@@H](CC(=O)O)OC; X1 = C[C@@H](N*)[C@@H](O)c1ccccc1; NMeV = CN[C@H](C(=O)O)C(C)C
Test system: 4T1-FAP cells
Assay: CCK-8 cell viability assay (cytotoxicity of MMAE and NAPC-ADC)
Format: cell-based, Mouse
Conditions: 72 hour incubation
Description: Cell viability was assessed using CCK-8 assay. Each experiment was performed in triplicate. To detect cytotoxicity of MMAE and NAPC-ADC, 4T1-FAP cells were seeded at 5×10^4 /mL in 96-well plates in 200 µL rmi-1640 medium containing 10% FBS and 1% penicillin/streptomycin, incubated at 37 °C in a 5% CO2 incubator for 24 hours, then incubated with different concentrations of MMAE and NAPC-ADC for 72 hour, and blank medium containing CCK-8 at a final concentration of 0.5 mg/mL was added. Incubated at 37 °C, 5% CO2 for 2 hours, absorbance was measured at 450 nm. The absorbance of treated cells was compared to that of the control group, whose viability was set at 100%.

With CC[C@H](C)[C@@H]([C@@H](CC(=O)N1CCC[C@H]1[C@H](OC)[C@@H](C)C(=O)N[C@H](C)[C@@H](O)c1ccccc1)OC)N(C)C(=O)[C@@H](NC(=O)[C@@H](NC)C(C)C)C(C)C [MMAE] (H-[NMeV]V[Dil][Dolaproine]-X1) the IC50 was < 1.69 nM and 1.69 nM.

Source: patent EP4733301A1 (priority 2023, dated 2025)
